Assay results as given in patent US7605175B2, “Inhibitors of cyclin-dependent kinases, compositions and uses related thereto” (GPC Biotech AG, priority 2001, dated 2009).
Where two headings read alike, the source gives them in different places.

Columns and labels:
arrested IMR90 cells = assay: Arrested cell assay, arrested IMR90 normal cells; format: cell-based; details: Homo sapiens, IMR-90
Summary of the method: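 IMR90 cells arrested by 3 days' serum-free culture after overnight plating at 20,000 cells/well (cycling cells kept in 10% FCS), then exposed to compound for 72 h at 37°C; 6 doses, 50 nM to 25 μM. Viability read by Calcein AM esterase fluorescence after 75 min at 37°C.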

arrested HCT-116 cells = assay: Arrested cell assay, arrested HCT-116 tumor cells; format: cell-based; details: Homo sapiens
Cdk2/cyclin E = molecular target: T1, Cdk2/cyclin E (Homo sapiens, UniProt P24941); assay: Biochemical kinase assay Cdk2/cyclin E; details: Table 6
T1 construct: made in house; host or cells: Sf9 insect cells
Summary of the method: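 Sf9-expressed Cdk/cyclin heterodimers phosphorylate GST-Rb (residues 379–928, 40 μg) with 50 μM ATP plus [γ-33P]ATP, pH 7.5, 10% DMSO, 15 min at 30 °C. Compounds 1 nM–10 μM. 33P captured on glutathione-sepharose and scintillation-counted; activity relative to DMSO control after EDTA-background subtraction.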

[1] = tested on: NCI panel of 60 cell lines; assay: NCI panel of human tumor cell lines (SRB), Mean-Graph Mid-point; format: cell-based
Excerpt: The evaluation of compounds at the National Cancer Institute in their panel of 60 cell lines provides a wealth of information regarding efficacy in a wide range of tumor types and genetic backgrounds. Included within this panel are cell lines derived from leukemia, melanoma and cancers of the lung, colon, brain, ovary, breast, prostate and kidney. Use of this panel provides a measure of the efficacy of compounds in cells with alterations in many genes that are associated with neoplastic transformation including p53 and Her2/Neu as well as those involved in metabolism and those which confer multi-drug resistance. The data generated in these cell lines with the protocol described below can be used to evaluate the activity of compounds.
Cells were grown in RPMI-1640 10% FCS and plated in 96 well micro-titer plates at densities ranging from 5,000 to 40,000 cells/well. The plates were incubated for 24 hours at 37° C., 5% CO2 for 24 hours. Media containing twice the desired final concentration of the compound (5 doses spanning 4 logs) was prepared and 100 μl was added to each well containing 100 μl media plus cells to yield the desired final concentration. The plates were then incubated for an additional 48 hours.
The effect of the compound on cellular viability was determined with the Sulforhodamine B (SRB) assay, which measures total protein. Cells were fixed with cold TCA to a final concentration of 10% and incubated at 4° C. for 60 minutes. The supernatant was discarded and the plates were washed five times with water and air-dried. SRB solution at […] in 1% acetic acid was added to each well and the plates were incubated for 10 minutes at room temperature. The plates were washed five times with 1% acetic acid and air-dried. The bound stain was solubilized with 10 mM trizma base and the absorbance was read on a plate reader at […].

[2] = read-out: IC50 for arrested IMR90 cells
[3] = read-out: IC50 for arrested HCT-116 cells
[4] = NCI assay, read-out: Mean-Graph Mid-point

| Structure (SMILES) | IC50 (arrested IMR90 cells; [2]) [µM] | IC50 (arrested HCT-116 cells; [3]) [nM] | IC50 (Cdk2/cyclin E) [nM] | IC50 [1, 4] [nM] | IC50 (arrested IMR90 cells; serum-starved arrested cells, 72 hours, read-out: Arrested cell assay IMR90 IC50) [µM] | IC50 (arrested HCT-116 cells; serum-starved arrested cells, 72 hours, read-out: Arrested cell assay HCT IC50) [nM] | IC50 ([1]; read-out: NCI panel MG-MID (Mean-Graph Mid-point, average IC50 over the whole cell panel)) [nM] |
| --- | --- | --- | --- | --- | --- | --- | --- |
| CC(C)N1CCN(C(=O)COc2ccc(-c3[nH]nc4c3C(=O)c3c(NC(=O)NN5CCOCC5)cccc3-4)cc2)CC1.Cl [Compound A37] | > 10 | < 50 | < 100 | < 50 |  |  |  |
| COCCN1CCN(Cc2ccc(-c3[nH]nc4c3C(=O)c3c(NC(=O)NN5CCOCC5)cccc3-4)cc2)CC1.Cl.Cl [Compound B16, N-[3-(4-{[4-(2-methoxyethyl)piperazinyl]methyl}phenyl)-4-oxoindeno[2,3-d]pyrazol-5-yl](morpholin-4-ylamino)carboxamide dihydrochloride] | > 10 | < 50 | < 10 | < 50 |  |  |  |
| CC(C)c1nn(-c2c(Cl)cccc2Cl)c2nc(Cc3ccc(O)c(CN4CCN(C(C)C)CC4)c3)[nH]c(=O)c12 [Compound C] |  |  |  |  | > 1 | < 10 | < 100 |
